The target in assay [1] is T1, B1R receptor of the rat (rB1R) (Rattus norvegicus, UniProt P97583).
T1 construct: expressed in transfected cells; host or cells: CHO K1 cells (Chinese hamster ovary), stably transfected
T1 sequence (P97583 1-337): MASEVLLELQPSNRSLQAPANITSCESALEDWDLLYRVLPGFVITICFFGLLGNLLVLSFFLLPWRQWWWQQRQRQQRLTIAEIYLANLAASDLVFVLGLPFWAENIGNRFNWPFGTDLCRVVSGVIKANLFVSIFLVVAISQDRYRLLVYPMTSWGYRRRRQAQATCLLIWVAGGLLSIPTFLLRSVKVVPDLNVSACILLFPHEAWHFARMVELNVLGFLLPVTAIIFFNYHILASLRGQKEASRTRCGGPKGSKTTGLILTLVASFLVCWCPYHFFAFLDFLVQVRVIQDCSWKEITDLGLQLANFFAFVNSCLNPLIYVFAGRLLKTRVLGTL
Description: Functional FLIPR Ca2+ assay on the bradykinin 1 receptor, rat (rB1R CHO K1 cells). It is filed as cell-based. The conditions noted are these: test substance 10 μM; CHO K1 cells transfected with rat B1R gene; agonist Des-Arg9-bradykinin at EC80; % inhibition compared with maximum achievable inhibition; read-out: B1R antagonism, rat [10 μM] % inhibition. The essentials: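 Stably transfected CHO K1 cells expressing human or rat B1R, Fluo-4-loaded, Ca2+ influx read by FLIPR (peak fluorescence). Compounds (10 μM for % activation) preincubated 10-20 min, then EC80 agonist added: Lys-Des-Arg9-bradykinin for human, Des-Arg9-bradykinin for rat; % inhibition versus maximal inhibition, IC50 from concentration series.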

Assay [2] concerns the target T2, human B1R receptor (hB1R) (Homo sapiens, UniProt P46663).
T2 construct: expressed in transfected cells; host or cells: CHO K1 cells (Chinese hamster ovary), stably transfected
T2 sequence (P46663 1-353): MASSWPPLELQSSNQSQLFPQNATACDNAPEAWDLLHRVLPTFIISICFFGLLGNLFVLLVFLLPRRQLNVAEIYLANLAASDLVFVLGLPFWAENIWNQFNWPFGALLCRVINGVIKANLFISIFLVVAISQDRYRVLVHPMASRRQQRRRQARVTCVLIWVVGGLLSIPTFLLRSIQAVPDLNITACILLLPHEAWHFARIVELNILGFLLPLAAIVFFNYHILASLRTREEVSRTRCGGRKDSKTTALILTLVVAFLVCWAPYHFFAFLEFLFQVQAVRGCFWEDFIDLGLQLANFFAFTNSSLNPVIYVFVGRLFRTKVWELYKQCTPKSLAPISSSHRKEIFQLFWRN
Kind of assay: Functional FLIPR Ca2+ assay on the bradykinin 1 receptor, human (hB1R CHO K1 cells). It is filed as cell-based. Particulars: test substance 10 μM; CHO K1 cells transfected with human B1R gene; agonist Lys-Des-Arg9-bradykinin at EC80; % inhibition compared with maximum achievable inhibition; read-out: B1R antagonism, human (10 μM] % inhibition. As to the method:
The agonistic or antagonistic action of substances can be quantified on the bradykinin 1 receptor (B1R) of the human and rat species with ectopically expressing cell lines (CHO K1 cells) and with the aid of a Ca^2+-sensitive dyestuff (Fluo-4) in a fluorescent imaging plate reader (FLIPR). The figure in % activation is based on the Ca^2+ signal after addition of Lys-Des-Arg^9-bradykinin (0.5 nM) or Des-Arg^9-bradykinin (100 nM). Antagonists lead to a suppression of the Ca^2+ inflow after addition of the agonist. % inhibition compared with the maximum achievable inhibition is stated.
The agonistic or antagonistic action of substances can be determined on the bradykinin 1 receptor (B1R) of the human and rat species with the following assay. In accordance with this assay, the Ca^2+ inflow through the channel is quantified with the aid of a Ca^2+-sensitive dyestuff (type Fluo-4, Molecular Probes Europe BV, Leiden, Holland) in a fluorescent imaging plate reader (FLIPR, Molecular Devices, Sunnyvale, USA).
Chinese hamster ovary cells (CHO K1 cells) transfected stably with the human B1R gene (hB1R cells) or the B1R gene of the rat (rB1R cells) are used. For functional studies, these cells are plated out on black 96-well plates with a clear base (BD Biosciences, Heidelberg, Germany or Greiner, Frickenhausen, Germany) in a density of 20,000-35,000 cells/well. The cells are left overnight at 37° C. and 5% CO2 in culture medium (hB1R cells: Nutrient Mixture Ham's F12, Gibco Invitrogen GmbH, Karlsruhe, Germany or DMEM, Sigma-Aldrich, Taufkirchen, Germany; rB1R cells: D-MEM/F12, Gibco Invitrogen GmbH, Karlsruhe, Germany) with 10 vol. % FBS (foetal bovine serum, Gibco Invitrogen GmbH, Karlsruhe, Germany or PAN Biotech GmbH, Aidenbach, Germany). On the following day, the cells are loaded for 60 min at 37° C. with 2.13 μM Fluo-4 (Molecular Probes Europe BV, Leiden, Holland) in HBSS buffer (Hank's buffered saline solution, Gibco Invitrogen GmbH, Karlsruhe, Germany) with 2.5 mM probenecid (Sigma-Aldrich, Taufkirchen, Germany) and 10 mM HEPES (Sigma-Aldrich, Taufkirchen, Germany). The plates are then washed 2× with HBSS buffer, and HBSS buffer which additionally contains 0.1% BSA (bovine serum albumin; Sigma-Aldrich, Taufkirchen, Germany), 5.6 mM glucose and 0.05% gelatine (Merck KgaA, Darmstadt, Germany) is added. After a further incubation of 20 minutes at room temperature, the plates are inserted into the FLIPR for the Ca^2+ measurement.
Alternatively, the plates are washed with buffer A (15 mM HEPES, 80 mM NaCl, 5 mM KCl, 1.2 mM CaCl2, 0.7 mM MgSO4, 2 g/l glucose, 2.5 mM probenecid), buffer A is added and the plates are loaded with 2.5 μM Fluo-4 and 0.025% Pluronic F127 (Sigma-Aldrich, Taufkirchen, Germany). Thereafter, the cells are washed 2× with buffer A and incubated for 30 minutes with buffer A, which additionally contains 0.05% BSA and 0.05% gelatine, at room temperature and thereafter inserted into the FLIPR for the Ca^2+ measurement. The Ca^2+-dependent fluorescence is measured here before and after addition of substances (λex=488 nm, λem=540 nm). Quantification is by measurement of the highest fluorescence intensity (FC, fluorescence counts) over time.
The FLIPR protocol consists of 2 additions of substance. Test substances (10 μM) are first pipetted on to the cells and the Ca^2+ inflow is compared with the control (hB1R: Lys-Des-Arg^9-bradykinin >=50 nM; rB1R: Des-Arg^9-bradykinin 10 μM). This gives the figure in % activation based on the Ca^2+ signal after addition of Lys-Des-Arg^9-bradykinin (>=50 nM) or Des-Arg^9-bradykinin (10 μM). After incubation for 10-20 minutes, Lys-Des-Arg^9-bradykinin (hB1R) or Des-Arg^9-bradykinin (rB1R) in the concentration of the EC80 is applied and the inflow of Ca^2+ is likewise determined. Antagonists lead to a suppression of the Ca^2+ inflow. % inhibition compared with the maximum achievable inhibition is calculated. In order to determine the IC50 value, the substances are added in various concentrations. […]

One may read the inhibition as the change of the read-out against control, counted positive when it falls. As for `COc1cc(C)c(S(=O)(=O)N2CCC[C@H]2COCC(=O)N2CCc3sc(CN4CCCCC4)cc3C2)c(C)c1` [Example 63, 2-[[(2S)-1-[(4-methoxy-2,6-dimethyl-phenyl)sulfonyl]-pyrrolidin-2-yl]-methoxy]-1-[2-(piperidin-1-yl-methyl)-4,5,6,7-tetrahydro-thieno[3,2-c]pyridin-5-yl]-ethanone], the inhibition at 10 µM worked out at 106% in assay [1] and 99% in assay [2].

For `Cc1cccc(C2c3ccsc3CCN2C(=O)CCC2CCCCN2S(=O)(=O)c2cc(C)c(Cl)cc2C)c1` (centres unmarked) [Example 10, 3-(1-(4-chloro-2,5-dimethylphenylsulfonyl)piperidin-2-yl)-1-(4-m-tolyl-6,7-dihydrothieno[3,2-c]pyridin-5(4H)-yl)propan-1-one], the inhibition at 10 µM in assay [1] was 105%; in assay [2], 78%.

`COc1cc(C)c(S(=O)(=O)N(C)CCOCC(=O)N2CCc3sc(CN4CCCCC4)cc3C2)c(C)c1` [Example 28, 4-Methoxy-N,2,6-trimethyl-N-(2-(2-oxo-2-(2-(piperidin-1-yl-methyl)-6,7-dihydrothieno[3,2-c]pyridin-5(4H)-yl)ethoxy)ethyl)benzene-sulfonamide]: the inhibition at 10 µM was 109% in assay [1] and 100% in assay [2].

Regarding `COc1cc(C)c(S(=O)(=O)N2CCCCC2COCC(=O)N2CCc3sccc3C2c2ccc(F)cc2)c(C)c1` (centres unmarked) [Example 22, 1-(4-(4-fluorophenyl)-6,7-dihydrothieno[3,2-c]pyridin-5(4H)-yl)-2-((1-(4-methoxy-2,6-dimethylphenylsulfonyl)piperidin-2-yl)methoxy)ethanone], the values for the inhibition at 10 µM in assay [1] and in assay [2] were 100% and 96%, respectively.

With `O=C(CC1CCCCN1S(=O)(=O)c1cccc(C(F)(F)F)c1)N1CCc2nc(Cc3ccncc3)sc2C1` (centres unmarked) [Example 40, 1-(2-(pyridin-4-ylmethyl)-6,7-dihydrothiazolo[5,4-c]pyridin-5(4H)-yl)-2-(1-(3-(trifluoromethyl)phenylsulfonyl)piperidin-2-yl)ethan-1-one], the inhibition at 10 µM in assay [1] amounted to 90%; in assay [2] it was 51%.

Consider `CN1CCN(Cc2cc3c(s2)CCN(C(=O)CC2CCCCN2S(=O)(=O)c2cccc(C(F)(F)F)c2)C3)CC1` (centres unmarked) [Example 44, 1-(2-((4-methylpiperazin-1-yl)methyl)-6,7-dihydrothieno[3,2-c]pyridin-5(4H)-yl)-2-(1-(3-(trifluoromethyl)phenylsulfonyl)piperidin-2-yl)ethan-1-one], for which the inhibition at 10 µM stood at 59% in assay [1] and 83% in assay [2].

With `Cc1cc(S(=O)(=O)N2CCCCC2CCC(=O)N2CCc3sccc3C2c2ccccc2C)c(C)cc1Cl` (centres unmarked) [Example 11, 3-(1-(4-chloro-2,5-dimethylphenylsulfonyl)piperidin-2-yl)-1-(4-o-tolyl-6,7-dihydrothieno[3,2-c]pyridin-5(4H)-yl)propan-1-one], the results for the inhibition at 10 µM in assay [1] and in assay [2] were 60% and 7%, respectively.

`COc1cc(C)c(S(=O)(=O)N(C)CCOCC(=O)N2CCc3sc(CN4CCN(C)CC4)cc3C2)c(C)c1` [Example 51, 4-methoxy-N,2,6-trimethyl-N-(2-(2-(2-((4-methylpiperazin-1-yl)methyl)-6,7-dihydrothieno[3,2-c]pyridin-5(4H)-yl)-2-oxoethoxy)ethyl)benzenesulfonamide]: the inhibition at 10 µM came to 103% in assay [1] and 100% in assay [2].

Take `COc1cc(C)c(S(=O)(=O)N2CCCCC2COCC(=O)N2CCc3sccc3C2c2cccc(C)c2)c(C)c1` (centres unmarked) [Example 08, 2-((1-(4-methoxy-2,6-dimethylphenylsulfonyl)piperidin-2-yl)methoxy)-1-(4-m-tolyl-6,7-dihydrothieno[3,2-c]pyridin-5(4H)-yl)ethanone]: the inhibition at 10 µM came out at 106% in assay [1] and 48% in assay [2].

As to `COc1cc(C)c(S(=O)(=O)N2CCCCC2CCCC(=O)N2CCc3nc(-c4ccncc4)sc3C2)c(C)c1` (centres unmarked) [Example 53, 4-(1-(4-methoxy-2,6-dimethylphenylsulfonyl)piperidin-2-yl)-1-(2-(pyridin-4-yl)-6,7-dihydrothiazolo[5,4-c]pyridin-5(4H)-yl)butan-1-one], the inhibition at 10 µM is 98% in assay [1] and 96% in assay [2].

Take `COc1cc(C)c(S(=O)(=O)N2CCCCC2COCC(=O)N2CCc3onc(CN4CCOCC4)c3C2)c(C)c1` (centres unmarked) [Example 29, 2-((1-(4-methoxy-2,6-dimethylphenylsulfonyl)piperidin-2-yl)methoxy)-1-(3-(morpholinomethyl)-6,7-dihydroisoxazolo[4,5-c]pyridin-5(4H)-yl)ethanone]: the results for the inhibition at 10 µM in assay [1] and in assay [2] were 101% and 99%, respectively.

On to `COc1cc(C)c(S(=O)(=O)N2CCCCC2COCC(=O)N2CCc3nc(Cc4ccncc4)sc3C2)c(C)c1` (centres unmarked) [Example 38, 2-((1-(4-methoxy-2,6-dimethylphenylsulfonyl)piperidin-2-yl)methoxy)-1-(2-(pyridin-4-ylmethyl)-6,7-dihydrothiazolo[5,4-c]pyridin-5(4H)-yl)ethan-1-one], for which the inhibition at 10 µM in assay [1] is 97%; in assay [2], 99%.

For `O=C(CC1CCCCN1S(=O)(=O)c1cccc(C(F)(F)F)c1)N1CCc2sccc2C1c1ccncc1` (centres unmarked) [Example 54, 1-(4-pyridin-4-yl-4,5,6,7-tetrahydro-thieno[3,2-c]pyridin-5-yl)-2-[1-[[3-(trifluoromethyl)phenyl]sulfonyl]-piperidin-2-yl]-ethanone], the inhibition at 10 µM in assay [1] was 101%; in assay [2] it was 16%.

The values are drawn from patent publication US8268814B2, “Substituted sulfonamide compounds” (Gruenenthal GmbH, priority 2008, dated 2012).
